What was measured:
[1] = Toxicity, plasma biochemical analysis; assay type: in vivo, mouse; conditions: 10 mg/kg/day oral, 7 days, mice
Procedure: In vivo target (RET and VEGFR2) inhibition was studied by treating animals grafted with NIH3T3 RET/C634Y cells at different doses (0.3, 1, or 3 mg/kg/day p.o.) of NPA101.3 for 2 days and then performing Western blot analysis on protein extracts. […] Then, to determine antitumorigenic activity and to better distinguish RET- and VEGFR2-mediated effects, we tested NPA101.3 in nude mice transplanted with NIH3T3 cells transformed by either RET/C634Y or HRAS/G12V. Before tumors appeared, animals were treated daily with NPA101.3 (1.0, 3.0, or 10.0 mg/kg/day) or left untreated. […] Still, VEGFR2 inhibition was detected also in RAS-driven tumors, an effect that might explain the, albeit reduced, effect of the drug on their growth (Figure S13). Importantly, as predicted, no trace of NPA101.3 demethyl metabolites was detected after 1 or 4 h from oral dosing in mice (Figure S14).
Patch-Clamp assay. The patch-clamp assay has been outsourced to Aptuit (Verona, Italy). […]
After thawing, cells were maintained in culture using minimum essential medium supplemented with 10% foetal bovine serum, 1% non-essential amino acids, 1% sodium pyruvate, 2mM L-glutamine, 1% pen-strep, 15μg/ml blasticidin and 100 μg/ml hygromycin. hERG channel expression induction was obtained by adding 10 μg/ml tetracycline 48 h before the experiment. […] Current amplitude was measured and […]

[2] = tested on: TT (RET/C634W), MZ-CRC-1 (RET/M918T), TPC-1 (CCDC6-RET); experiment: RET autophosphorylation and SHC/MAPK signalling in RET mutant human cancer cell lines; assay type: cell-based; conditions: 2 h treatment
Procedure: NPA101.3 inhibited RET autophosphorylation and signaling along the SHC/MAPK pathway in human cancer cell lines endogenously expressing RET oncogenic variants, including MTC cell lines, TT (RET/C634W) and MZ-CRC-1 (RET/M918T), and PTC cell line TPC-1 (CCDC6-RET); in the lung adenocarcinoma cell line Lc-2/ad (CCDC6-RET), only RET and SHC (but not MAPK) dephosphorylation was detectable (Figure S4).
(§1) Protein lysates were prepared according to standard procedures. Briefly, cells were lysed in a buffer containing 50 mM N-2-hydroxyethylpiperazine-N′-2-ethanesulfonic acid (HEPES; pH 7.5), 1% (v/v) Triton X-100, 150 mM NaCl, 5 mM EGTA, 50 mM NaF, 20 mM sodium pyrophosphate, 1 mM sodium vanadate, 2 mM phenylmethanesulfonyl fluoride (PMSF), and 1 μg/mL aprotinin. Lysates were clarified by centrifugation at 10000g for 15 min. […] Immune complexes were detected with the enhanced chemiluminescence kit (Amersham Pharmacia Biotech, Little Chalfont, U.K.). Anti-phospho-SHC (#Y317), which recognizes SHC protein when phosphorylated on Y317, was from Upstate Biotechnology Inc. (Lake Placid, NY). Anti-SHC (H-108) was from Santa Cruz Biotechnology (Santa Cruz, CA). Anti-MAPK (9101) and anti-phospho-MAPK (9102), specific for p42/44MAPK (ERK1/2) phosphorylated on Thr202/Tyr204, antibodies were from Cell Signaling Technologies (Danvers, MA). […]

[3] = tested on: NIH3T3 RET/C634Y cells; experiment: Phosphorylation and signalling Western blot in NIH3T3 RET/C634Y cells; assay type: cell-based; conditions: 10.0 nM, 2 h
Procedure: as §1, with “MA). Anti-phospho-VEGFR2/KDR (2478), specific for VEGFR2/KDR phosphorylated on Tyr1175, and anti-VEGFR2/KDR (2479) were from Cell Signaling Technologies. Anti-phospho-p70S6K (9234), specific for p70S6K phosphorylated on Thr389, and anti-p70S6K (2708) were from Cell Signaling Technologies.” for “MA).”

CC(C)(C)c1cc(NC(=O)Cc2ccc(-n3cnc4cc(-c5ccc(S(C)(=O)=O)cc5)ccc43)cc2)no1 [NPA101.3]
standard blood markers of organ damage [1]: no significant change | RET autophosphorylation and signaling along the SHC/MAPK pathway [2]: inhibited | phosphorylation of MAPK [3]: attenuated | phosphorylation of RET and SHC [3]: almost completely inhibited
